Measurements reported in US11896673B2, “Glucose responsive insulin delivery compositions and methods” (NORTH CAROLINA STATE UNIVERSITY, priority 2016, dated 2024).

What was measured:
mRBCs [1] = test: Binding/loading of Glu-Insulin to mouse RBCs (confocal, flow cytometry, ELISA); details: incubated overnight, confocal fluorescence microscopy
Protocol: Preparation of insulin loaded RBCs. Whole blood was collected from the B16 mice or from a human volunteer (The study protocol was approved by the Institutional Review Board at North Carolina State University). RBCs were separated from the whole blood by centrifugation (1000 g, 10 min) and washed thrice with cold PBS (300 mOsm, pH=8.0) to remove the glucose intracellularly. To load the insulin to RBC membrane, Glu-Insulin (0.5 mg/ml) was incubated with […] RBCs (1×10^8) under gentle stirring at 4° C. overnight. RBCs were washed thrice with cold PBS (300 mOsm, pH 8) to remove the unconjugated Glu-Insulin. Bound insulin was determined by ELISA assay.

[2] = system: STZ-induced diabetic mice; test: Blood glucose levels in STZ-induced diabetic mice after treatment; assay type: in vivo; details: i.v., 5 mg/kg insulin
Protocol: In Vivo Studies Using STZ-Induced Diabetic Mice. STZ-induced male C57B6 diabetic mice were purchased from Jackson Labs (USA) and used under protocols approved by the Institutional Animal Care and Use Committee at North Carolina State University. For in vivo circulating behavior of insulin-RBC, mRBCs were coupled with FITC after loading with insulin, 3 mice were injected i.v. with autologous insulin−mRBCs. Then ˜3 μL of blood was extracted from the tail vein at different time points and then dispersed in 0.5 mL of PBS with anticoagulants. Flow cytometry measurement was applied to determine the percentages of insulin−mRBCs (positive in FITC) in the blood samples. […] The BG level was measured from tail vein blood samples (approximately 3 μL) of mice using the Clarity GL2Plus glucose meter (Clarity Diagnostics) at different time points. […] Plasma insulin concentrations were determined using the human insulin ELISA kit (Calbiotech, USA). The efficacy of insulin−mRBCs for treatment of hyperglycemia in STZ-induced type 1 diabetic mice (Like, A A, et al. Science 193, 415-417 (1976)) was also assessed. […] The BG levels of treated mice were then monitored over time.

[3] = system: STZ-induced diabetic mice; test: Intraperitoneal glucose tolerance test (IPGTT) 1.5 h after administration; assay type: in vivo; details: IPGTT 1.5 hours after i.v. administration
Protocol: In Vivo Studies Using STZ-Induced Diabetic Mice. STZ-induced male C57B6 diabetic mice were purchased from Jackson Labs (USA) and used under protocols approved by the Institutional Animal Care and Use Committee at North Carolina State University. For in vivo circulating behavior of insulin-RBC, mRBCs were coupled with FITC after loading with insulin, 3 mice were injected i.v. with autologous insulin−mRBCs. Then ˜3 μL of blood was extracted from the tail vein at different time points and then dispersed in 0.5 mL of PBS with anticoagulants. Flow cytometry measurement was applied to determine the percentages of insulin−mRBCs (positive in FITC) in the blood samples. […] The BG level was measured from tail vein blood samples (approximately 3 μL) of mice using the Clarity GL2Plus glucose meter (Clarity Diagnostics) at different time points. […] Plasma insulin concentrations were determined using the human insulin ELISA kit (Calbiotech, USA). […] To quantitate the glucose response to the various insulin formulations (Yu J, et al. Proc. Natl. Acad. Sci. U.S.A. 112, 8260-8265 (2015); Chou DH-C, et al. Proc. Natl. Acad. Sci. U.S.A. 112, 2401-2406 (2015)), the area under the curve was calculated for each group between 90 and 200 min. […] Furthermore, plasma insulin levels of diabetic mice were monitored over time by ELISA after IPGTT (FIG. 8D).

[4] = system: STZ-induced type 1 diabetic mice; test: In vivo bioactivity comparison of native insulin and Glu-Insulin; details: same insulin concentration 5 mg/kg
From the text: Glucose was conjugated to insulin via a bifunctional maleimide linker (FIG. 2). Glu-Insulin was clearly identified by the sodium dodecyl sulfate polyacrylamide gel electrophoresis (SDS-PAGE) and matrix-assisted laser desorption/ionization mass spectrometry (MALDI MS) (FIG. 3A-B). As calculated by MALDI-MS, two glucose molecules are conjugated to each insulin molecule (feed molar ratio of glucose to insulin: 100:1). […] In short, the modification of insulin with glucose has a statistically insignificant impact on bioactivity relative to unmodified insulin.

GLUT1 = target: T1, GLUT1 (Rattus norvegicus, UniProt P11167); test: Binding of free GLUT1 protein and Glu-Insulin in vitro (centrifugal filter); details: overnight incubation, MWCO=10 kDa filter
T1 construct: His6 (pET-28a vector-encoded) (N); T7 tag (pET-28a vector-encoded, upstream of BamHI site) (N); made in house; host or cells: E. coli Rosetta (DE3) pLysS
T1 sequence (P11167 1-492): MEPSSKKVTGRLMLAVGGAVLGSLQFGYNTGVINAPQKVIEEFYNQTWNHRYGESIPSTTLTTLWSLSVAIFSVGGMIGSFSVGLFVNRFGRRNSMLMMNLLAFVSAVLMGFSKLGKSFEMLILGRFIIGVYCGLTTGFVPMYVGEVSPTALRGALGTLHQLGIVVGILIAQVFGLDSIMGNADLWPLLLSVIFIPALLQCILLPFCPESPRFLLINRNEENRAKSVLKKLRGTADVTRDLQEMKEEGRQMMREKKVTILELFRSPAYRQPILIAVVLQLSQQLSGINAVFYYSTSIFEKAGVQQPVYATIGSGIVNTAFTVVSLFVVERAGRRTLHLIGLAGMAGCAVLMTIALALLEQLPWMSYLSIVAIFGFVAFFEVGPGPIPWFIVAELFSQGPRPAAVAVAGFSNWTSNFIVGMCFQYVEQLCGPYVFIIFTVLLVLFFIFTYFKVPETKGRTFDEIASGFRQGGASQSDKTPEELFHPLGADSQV
Protocol: Glucose modified insulin was mixed with GLUT1 protein at a molar ratio of 1.2:1 for 12 hours at 4° C. Free Glu-insulin were removed by the centrifugal filter device (MWCO=10 kDa). The obtained Glu-Insulin was stored at 4° C. until use. We first examined the specific binding affinity of free GLUT1 proteins and Glu-Insulin in vitro. We incubated the GLUT1 with Glu-Insulin overnight, free Glu-Insulin was removed by centrifugal filter device (MWCO=10 kDa).

healthy mice = test: Hypoglycemia study in healthy mice under normoglycemic conditions; details: mouse, in vivo
Protocol: FIG. 8F is a bar graph showing the quantification of the hypoglycemia index, calculated from the difference between the initial and nadir BG readings divided by the time at which nadir was reached. The error bars are based on the SD of five mice per group. (P values: *P<0.05) Next, the potential for insulin−mRBCs to induce hypoglycemia was studied in healthy mice under normoglycemic conditions (FIG. 8E). […] The corresponding hypoglycemia index was calculated to assess the risk of hypoglycemia (Yu J, et al. Proc. Natl. Acad. Sci. U.S.A. 112, 8260-8265 (2015); Chou DH-C, et al. Proc. Natl. Acad. Sci. U.S.A. 112, 2401-2406 (2015)).

mRBCs [5] = system: mRBCs
Protocol: The mRBCs were incubated with Glu-Insulin overnight and imaged using the confocal fluorescence microscope to determine whether Glu-Insulin can bind to mRBCs via the specific glucose-GLUT binding.

binding of Glu-Insulin to mRBCs (mRBCs [1]): bound to the mRBCs
Substance: Glu-Insulin: human recombinant insulin conjugated to two glucose (glucosamine) molecules via a bifunctional maleimide (Sulfo-SMCC/thiol) linker
BG level recovered within 24 h [2]: ~500 mg/dL
BG level within 1 h [2]: < 70 mg/dL
BG response after IPGTT [3]: only exhibited a fleeting response
bioactivity profile relative to native insulin [4]: do not display any significant difference in their bioactivity profiles
binding of Glu-Insulin to free GLUT1 protein (GLUT1): insulin signals could be detected in supernatant if co-incubated with GLUT1 proteins
BG levels in healthy mice (healthy mice): significantly decreased BG levels compared to insulin−mRBCs treated mice
damage to mRBCs by insulin binding (annexin V) (mRBCs [5]): does not cause significant damage to mRBCs
